Results as given in patent US20050058745A1, “Use of Labiatae herb preparations for extending the flavor shelf life of malt beverages” (priority 2003, published 2005).

Legend:
[1] = Haze formation in aged beer (Haze Meter); format: physicochemical; settings: for Haze: 20 ppm (RA + CA: 10 ppm each); for effect on rate of haze formation: aged beer exposed to air
Description: The highly hopped beer from example 2 was treated with solutions of carnosic acid in ethanol, rosmarinic acid in ethanol or a mixture of carnosic acid and rosmarinic acid in ethanol as done previously. The preparations were: • 1. “Fresh”, in which the beer remained unopened and was stored in the cold room at 2-4° C. • 2. “20 ppm CA” in which bottles were opened and 20 ppm carnosic acid was added from a 2% solution of pure CA ([…] of the 2% solution). The bottles were fobbed to exclude air and crowned. • 3. “20 ppm CA+air” in which bottles were opened and 20 ppm CA added as above. These bottles received two puffs of air in the remaining headspace from a 25 mL bulb. They were crowned without fobbing • 4. “20 ppm RA” in which bottles were opened and 20 ppm rosmarinic acid added from a 2% solution. The bottles were fobbed and crowned. • 5. “20 ppm RA+air” which was done as in No. 4, with 20 ppm RA added. These bottles received the two puffs of air and were crowned without fobbing. • 6. “10 ppm RA+10 ppm CA” in which bottles were opened and 10 ppm each of carnosic and rosmarinic acids were added from pure solutions (178 μL of 2% solution per 12 oz bottle). Bottles were fobbed and crowned. • 7. “10 ppm RA+10 ppm CA+air” in which 10 ppm each of RA and CA was added. This treatment received two puffs of air and was not fobbed before closing. • 8. “Control+air” in which bottles were opened, given two puffs of air and crowned without fobbing. • 9. “Control” in which bottles were opened, fobbed and crowned.
The samples prepared in Example 18 were analyzed for haze in the following manner. A clean, dry, clear flint bottle was marked with a permanent mark on the neck for aligning the bottle the same way for each measurement. The bottle was filled with distilled water to the bottom of the neck and aligned in a Haze Meter with the alignment mark facing forward (Haze Meter, Type UKM1d, Radiometer Copenhagen) to zero the instrument. The bottle was emptied and then filled with a degassed beer sample to be tested and the haze was recorded in ASBC Formazin units.

[2] = Phenylacetaldehyde in headspace of aged beer; format: physicochemical; settings: for Phenylacetaldehyde in the headspace of aged beer: 20 ppm (RA + CA: 10 ppm each); for effect on formation of phenylacetaldehyde and 3-methylbutanal: aged beer, 40° C.
Description: The highly hopped beer from example 2 was treated with solutions of carnosic acid in ethanol, rosmarinic acid in ethanol or a mixture of carnosic acid and rosmarinic acid in ethanol as done previously. […] The bottles were fobbed to exclude air and crowned. • 3. “20 ppm CA+air” in which bottles were opened and 20 ppm CA added as above. These bottles received two puffs of air in the remaining headspace from a 25 mL bulb. They were crowned without fobbing • 4. “20 ppm RA” in which bottles were opened and 20 ppm rosmarinic acid added from a 2% solution. The bottles were fobbed and crowned. • 5. “20 ppm RA+air” which was done as in No. 4, with 20 ppm RA added. These bottles received the two puffs of air and were crowned without fobbing. • 6. “10 ppm RA+10 ppm CA” in which bottles were opened and 10 ppm each of carnosic and rosmarinic acids were added from pure solutions (178 μL of 2% solution per 12 oz bottle). Bottles were fobbed and crowned. • 7. “10 ppm RA+10 ppm CA+air” in which 10 ppm each of RA and CA was added. This treatment received two puffs of air and was not fobbed before closing. • 8. “Control+air” in which bottles were opened, given two puffs of air and crowned without fobbing. • 9. “Control” in which bottles were opened, fobbed and crowned. Treatments 2 through 9 were stored in a 40° C. hot room. At various times, bottles were opened and samples analyzed for phenylacetaldehyde and 3-methylbutanal by the method of “[…], et al. The results are shown in Table 19.

Row | SMILES | Haze ([1]; Day 0, 40° C., + air) | Haze ([1]; Day 0, 40° C., no air) | Haze ([1]; Day 3, 40° C., + air) | Haze ([1]; Day 3, 40° C., no air) | Haze ([1]; Day 7, 40° C., + air) | Haze ([1]; Day 7, 40° C., no air) | Haze ([1]; Day 14, 40° C., + air) | Haze ([1]; Day 14, 40° C., no air) | Haze ([1]; Day 21, 40° C., + air) | Haze ([1]; Day 21, 40° C., no air) | Haze ([1]; Day 35, 40° C., + air) | Haze ([1]; Day 35, 40° C., no air) | effect on rate of haze formation [1] | Phenylacetaldehyde in the headspace of aged beer ([2]; Day 0, 40° C., + air) | Phenylacetaldehyde in the headspace of aged beer ([2]; Day 0, 40° C., no air) | Phenylacetaldehyde in the headspace of aged beer ([2]; Day 3, 40° C., + air) | Phenylacetaldehyde in the headspace of aged beer ([2]; Day 3, 40° C., no air) | Phenylacetaldehyde in the headspace of aged beer ([2]; Day 7, 40° C., + air) | Phenylacetaldehyde in the headspace of aged beer ([2]; Day 7, 40° C., no air) | Phenylacetaldehyde in the headspace of aged beer ([2]; Day 14, 40° C., + air) | also measured
1 | CC(C)c1cc2c(c(O)c1O)[C@@]1(C(=O)O)CCCC(C)(C)[C@@H]1CC2 [CA, carnosic acid] | 40 ASBC Formazin Units | 40 ASBC Formazin Units | 45 ASBC Formazin Units | 30 ASBC Formazin Units | 50 ASBC Formazin Units | 35 ASBC Formazin Units | 80 ASBC Formazin Units | 45 ASBC Formazin Units | 120 ASBC Formazin Units | 75 ASBC Formazin Units | 800 ASBC Formazin Units | 110 ASBC Formazin Units | dramatic positive effect on reducing the rate of haze formation | 30.49 Parts per million | 32.76 Parts per million | 42.05 Parts per million | 46.34 Parts per million | 63.82 Parts per million | 57.39 Parts per million | 25.74 Parts per million | Phenylacetaldehyde in the headspace of aged beer ([2]; Day 14, 40° C., no air): 24.75 Parts per million; Phenylacetaldehyde in the headspace of aged beer ([2]; Day 21, 40° C., + air): 88.86 Parts per million; Phenylacetaldehyde in the headspace of aged beer ([2]; Day 21, 40° C., no air): 52.94 Parts per million; effect on formation of phenylacetaldehyde and 3-methylbutanal [2]: dramatic effect in decreasing the formation of these off-flavor compounds
2 | O=C(/C=C/c1ccc(O)c(O)c1)O[C@H](Cc1ccc(O)c(O)c1)C(=O)O [RA, rosmarinic acid] | 37 ASBC Formazin Units | 37 ASBC Formazin Units | 32 ASBC Formazin Units | 40 ASBC Formazin Units | 40 ASBC Formazin Units | 35 ASBC Formazin Units | 100 ASBC Formazin Units | 40 ASBC Formazin Units | 175 ASBC Formazin Units | 55 ASBC Formazin Units | 800 ASBC Formazin Units | 120 ASBC Formazin Units | dramatic positive effect on reducing the rate of haze formation | 50.16 Parts per million | 43.6 Parts per million | 48.83 Parts per million | 45.83 Parts per million | 66.68 Parts per million | 46.01 Parts per million | 55.65 Parts per million | Phenylacetaldehyde in the headspace of aged beer ([2]; Day 14, 40° C., no air): 52.71 Parts per million; Phenylacetaldehyde in the headspace of aged beer ([2]; Day 21, 40° C., + air): 68.89 Parts per million; Phenylacetaldehyde in the headspace of aged beer ([2]; Day 21, 40° C., no air): 52.14 Parts per million; effect on formation of phenylacetaldehyde and 3-methylbutanal [2]: dramatic effect in decreasing the formation of these off-flavor compounds
